The values that follow come from patent US8664276B2, “Stilbene analogs and methods of treating cancer” (University of Kentucky Research Foundation, priority 2011, dated 2014).

One data set in a line: Solubility. The class given is physicochemical.
Data set [1] has as its system Wnt target genes, Axin2 and c-Myc. The experiment in a line: Western blot of Wnt target proteins in LS174 CRC cells. The class given is cell-based. The procedure: Western blot. Western blots were performed using the following antibodies: β-catenin (Sigma, C2206), c-Myc (Epitomics, 1472-1), Axin2 (Cell Signaling, 2151), β-Actin (Sigma, A1978), TCF4 (Epitomics, 2114-1) and pygopus2 (Santa Cruz, sc-74878), Cyclin D1 (Cell signaling, 2926).
(§1) Cyclin B1 levels were decreased, whereas p21^WAF1/CIP1 levels increased, consistent with the fact that p21^WAF1/CIP1 expression is repressed by c-Myc. β-catenin levels were not affected by resveratrol. Next, the mRNA levels of β-catenin target genes were analyzed using RT-PCR. Expression of survivin, Lgr5, CD44, and c-Myc were decreased in resveratrol-treated cells.
A panel of stilbene analogs was designed and synthesized (FIGS. 2, 3, 5A and 6A). […] However, the solubility of 4d was poor and it was not effective below 10 μM concentrations (data not shown). To improve its solubility and activity, compound 4d was modified with 2′-fluoro 4e, 3′-fluoro 4f and 4′-fluoro 4g substituents (FIG. 5D). Both compounds 4e and 4f had good activity at 10 μM, (E)-4-(2-fluorostyryl)-N,N-dimethylaniline.
(§2) Western blot and cell proliferation assay. The activity of fluorinated N,N-dialkylaminostilbenes (FIDAS or FIDAS agents) on Wnt signaling activity in cancer cells were analyzed by Western blot with antibodies against Wnt target genes, such as c-Myc, Axin2. The effects of FlDAS agents on cancer cell growth were analyzed using Cell Viability Analyzer (Beckman Coulter, Vi-Cell XR). These assays have been described previously (see Zhang et al., J. of Med. Chem. 54, 1288-1297 (2011)).
(In general: In western blotting, separated proteins are transferred to a membrane and probed.)

A further data set has as its system liver cancer cells. The experiment in a line: Liver cancer cell proliferation. The class given is cell-based. The conditions noted are these: FIG. 15. The procedure: as §2
As previously shown, several metabolites of the halogenated stilbenes of the present disclosure were synthesized (Example 2 and FIG. 3). In this study, the effects of some of these metabolites on cell proliferation were studied.

The target of data set [2] is T1, MAT2A (Homo sapiens, UniProt P31153). The experiment in a line: Cell based SAM and SAH analysis in LS174 colon cancer cells (LC-MS/MS). The arrangement: endogenous in cells; host or cells: LS174T. Particulars: 3 μM of 4dd versus 10 uM of 4r and 30 uM of resveratrol. On the procedure: (§3) SAM and SAH analysis by LC-MS/MS. The LC-MS/MS system consisted of two Varian ProStar 210 LC Pumps coupled with a Varian 1200L triple quadrupole mass spectrometer. The separation was performed on a Hypercarb column (50 mm×2.1 mm, […], Thermo Scientific #35003-052130). Gradient elution started with 98% solution A (0.1% formic acid in water), followed by an increase to 38% solution B (0.1% formic acid in acetonitrile) in 8 min. The column was than flushed with 90% B for 5 min and regenerated with 98% A for another 8 min. The flow rate was 0.25 mL/min. Between the 3rd and 11th min, the eluent was switched to the ion source of the mass spectrometer. The precursor product transitions for SAM (m/z 399→250), SAH (m/z 385→250) and [d-4]-SAH (m/z 389→136) were monitored. The optimized ion source parameters were: Capillary Voltage: 32 V for both SAM and SAH, Collision energy: 9 V and 7V for SAM and SAH, respectively, Needle voltage: 5000 V and the Shield voltage: 600V. Nitrogen was used as the drying gas at a temperature of 300° C. and the interface heater was set to 50° C. The drying gas and nebulizing gas were set to 20 and 50 psi, respectively.
Cell based SAM analysis. […] 5 ul of supernatants were analyzed by LC-MS/MS using a modified method based on a previous publication (see Krijt et al., J Chromatogr B Analyt Technol Biomed Life Sci 877, 2061-6, (2009)). […]

The next data set is described as follows: Tolerability in mice. The data set is classed as in vivo. On the procedure:
Therefore, as shown in this example, the halogenated stilbene analogs of the present disclosure are capable of inhibiting CRC both in vitro and in vivo. In another study, it was shown that mice could tolerate at least 200 mg/kg of a halogenated stilbene analog, FlDAS 4dd.

In another data set the test system is HT29 xenografted tumors. The experiment in a line: HT29 tumor xenograft in nude mice, oral gavage. The class given is in vivo. Particulars: HT29, 20 mg/kg in PEG400 by gavage. The procedure:
Tumor xenograft in nude mice. LS174 or HT29 colon cancer cells (2×10^6) were injected subcutaneously into both flanks of 6-8 week C57BL/6J athymic nude mice as described in Zhang et al., Mol Cell Biol 2006, 26, 2055-2064. Compound 4r or 4dd was dissolved in corn oil or PEG400. The mice were treated with 20 mg/kg/day of 4r by ip injection or gavage (50 μl/mouse). Control mice were treated with same volume of corn oil or PEG400. The body weight and tumor growth were analyzed twice weekly for one month. Tumor size was measured using digital caliper. The tumor volume was calculated by the formula: V=½LW^2 (mm^3).
Xenografted nude mice were developed according to the protocol described above and in Zhang et al., J. of Med. Chem. 54, 1288-1297 (2011)). Briefly, HT29 cells were injected subcutaneously into the flanks of nude mice. The mice were then treated with 20 mg/kg compound 4dd dissolved in PEG400 by gavage. As described in Example 7, an IP injection of compound 4r dissolved in corn oil inhibited xenograft tumor growth. Here, it was also shown that the halogenated stilbenes of the present disclosure can also be dissolved in other solvents such as PEG400 and cyclodextran.

A further data set deals with LS174 CRC cells. The experiment in a line: CRC cell proliferation assay (Vi-Cell). The class given is cell-based. The procedure:
Luciferase and cell proliferation assay. HEK293T cells were transiently transfected in a 12-well plate with 0.2 μg of the Super8xTOPFlash reporter and 0.05 μg of Renilla luciferase reporter. Culture medium was changed after 12 h. After 6 h, cells were treated with DMSO or Wnt inhibitors for 12 h, and then treated with 25 mM LiCl or Wnt conditioned medium. After 12 h, cells were harvested and luciferase activity measured by Dual-luciferase Reporter Assay System (Promega, Madison Wis.). All conditions were done in triplicate and each experiment was carried out at least two times. For cell proliferation assay, CRC cells were treated with DMSO or inhibitors for 2d and 4d. The cell numbers and viability were analyzed by Vi-Cell Cell Viability Analyzer.
as §2

The test system of another data set is Wnt signaling. Put plainly: TopFlash luciferase reporter assay in HEK293T cells. The class given is cell-based. The conditions noted are these: HEK293T. The procedure: Luciferase and cell proliferation assay. HEK293T cells were transiently transfected in a 12-well plate with 0.2 μg of the Super8xTOPFlash reporter and 0.05 μg of Renilla luciferase reporter. Culture medium was changed after 12 h. After 6 h, cells were treated with DMSO or Wnt inhibitors for 12 h, and then treated with 25 mM LiCl or Wnt conditioned medium. After 12 h, cells were harvested and luciferase activity measured by Dual-luciferase Reporter Assay System (Promega, Madison Wis.). All conditions were done in triplicate and each experiment was carried out at least two times. For cell proliferation assay, CRC cells were treated with DMSO or inhibitors for 2d and 4d. The cell numbers and viability were analyzed by Vi-Cell Cell Viability Analyzer. To identify Wnt pathway inhibitors for CRC prevention and treatment, a number of anti-cancer agents from plants were screened using the TopFlash reporter assay. The TopFlash reporter was transfected into HEK293T cells, and the cells were treated with Wnt3A-conditioned medium in order to activate the luciferase reporter. […] To determine if resveratrol regulates β-catenin degradation, the cells were treated with 25 mM LiCl, which inhibits GSK-3 and stabilizes β-catenin. In this assay, LiCl activated the reporter more strongly than Wnt3A conditioned medium. […] Emodin is an anti-cancer agent from plants; it exists in many unpurified resveratrol products. Emodin had no effect on Wnt signaling. See Zhang et al., J. of Med. Chem. 54, 1288-1297 (2011).
(A reporter such as luciferase makes a cellular process visible.)

The next data set relates to β-catenin target genes. Put plainly: RT-PCR of β-catenin target genes in LS174 cells. The class given is cell-based. The conditions noted are these: LS174 cells. On the procedure:
RT-PCR. LS174 cells were treated with DMSO or Wnt inhibitors. After 36 h, RNA was isolated using the RNeasy kit (Qiagen). RT-PCR was performed as described in Zhang et al., Mol Cell Biol 2006, 26, 2055-2064. The following primers were used: β-actin: 5′-CAACCGCGAGAAGATGAC-3′ (SEQ ID NO:01), 5′-AGGAAGGCTGGAAGAGTG-3′ (SEQ ID NO:02); surivivin: 5′-[…]-3′ (SEQ ID NO:03), 5′-[…]-3′ (SEQ ID NO:04); c-Myc: 5′-TGGGCTGTGAGGAGGTTTG-3′ (SEQ ID NO:05), 5′-TATGTGGAGCGGCTTCTCG-3′ (SEQ ID NO:06); Axin2: 5′-[…]-3′ (SEQ ID NO:07), 5′-[…]-3′ (SEQ ID NO:08); TCF4: 5′-[…]-3′ (SEQ ID NO:09), 5′-[…]-3′ (SEQ ID NO:10); pygopus2: 5′-GGCCGGTCTGCAAATGAAG-3′ (SEQ ID NO:11), 5′-TCCACCTCCAGTGCTGTAG-3′ (SEQ ID NO:12); Lgr5: 5′-[…]-3′ (SEQ ID NO:13), 5′-[…]-3′ (SEQ ID NO:14); CD44: 5′-[…]-3′ (SEQ ID NO:15), 5′-[…]-3′ (SEQ ID NO:16); Ki67: 5′-[…]-3′ (SEQ ID NO:17), 5′-[…]-3′ (SEQ ID NO:18).
as §1

The target of data set [3] is T1, MAT2A. Put plainly: In-vitro SAM synthesis by MAT2A (LC-MS/MS). Further details: GST (N); made in house. The class given is biochemical. On the procedure:
as §3
SAM synthesis. […] purified MAT2A was incubated with 1 mM L-methionine and 1 mM ATP in […] reaction solution (50 mM Tris.Cl, 50 mM KCl, 10 mM MgCl2) for 5 min at 25° C. […] SAM was analyzed by LC-MS/MS. […]

Structures are written as SMILES.

Take `CN(C)c1ccc(/C=C/c2ccccc2)cc1` [4d, (E)-4-styryl-N,N-dimethylaniline, reference compound]: the solubility entry in the data set “Solubility” is “poor”. Besides, the “repression of Wnt target genes at 30 μM” value in [1] (30 μM, CRC cells) is “strongly repressed”. Moreover, in data set [1] (CRC cells), the “Wnt inhibitory activity in Western blot, qualitative or relative to a comparator” value is “more active than 4-methoxystilbene (4b)”. The “effectiveness on Wnt target genes below 10 μM” value in [1] (below 10 μM concentrations (data not shown)) is reported as “not effective”.

On to `CNc1ccc(/C=C/c2c(F)cccc2Cl)cc1` [4dd, (E)-4-(2-chloro-6-fluorostyryl)-N-methylaniline], for which the “liver cancer cell proliferation, effectiveness versus resveratrol and 4r” value with liver cancer cells is “significantly more effective than resveratrol, as well as compound 4r”. Also, the “inhibition of MAT2A and reduction of SAM and SAH” value against MAT2A [2] is listed as “even more potent than 4r”. Also, the tolerated dose result in the data set “Tolerability in mice” was “at least 200 mg/kg”. Also, the body weights entry in “Tolerability in mice” (200 mg/kg (data not shown)) is recorded as “reduced after one week but were recovered to normal weight after stopping 4dd treatment”. In the data set on HT29 xenografted tumors, the “effect on body weight” value is recorded as “without any adverse effect” and the “growth of xenografted tumors” value is “significantly inhibits”. In the data set with LS174 CRC cells (FIG. 14), the “colon cancer cell proliferation, effectiveness versus resveratrol and 4r” value is given as “significantly more effective than resveratrol, as well as compound 4r”.

Consider `Oc1ccc(/C=C/c2cc(O)cc(O)c2)cc1` [resveratrol, trans- or (E)-3,5,4′-trihydroxystilbene, reference compound], for which, in the data set with Wnt signaling (25 mM LiCl), the “LiCl-induced Wnt signaling” value is on record as “strongly inhibited”. Further, the Wnt-induced luciferase activity entry in the data set with Wnt signaling (Wnt3A-conditioned medium, 100 μM) was “significantly inhibited”. In the data set on β-catenin target genes, the “cell proliferation marker Ki67 mRNA” value is given as “also decreased”; the “mRNA expression of survivin, Lgr5, CD44, and c-Myc” value is recorded as “decreased”. Besides, the LS174 cell proliferation entry with LS174 CRC cells (treated for 2d and 4d) is given as “inhibited cell proliferation”. Moreover, in [1] (CRC cells), the “protein levels of TCF4 and pygopus2” value is recorded as “reduced”; the β-catenin levels result is on record as “not affected”. In data set [1] (LS174 CRC cells), the “Cyclin B1 levels” value is “decreased”; the p21WAF1/CIP1 levels entry is “increased”; the “protein levels of c-Myc and Cyclin D1” value is “reduced”. In addition, the “protein levels of Wnt/β-catenin targets at 100 μM” value in data set [1] (LS174 cells, 100 μM) is “reduced the protein levels”. On MAT2A [3], the “MAT2A activity in SAM synthesis” value is listed as “inhibit MAT2A activity”.
